Target: T1, human CCR6 (Homo sapiens, UniProt P51684)
T1 construct: expressed in transfected cells; host or cells: Ba/F3 cells (mouse pro-B line)
T1 sequence (P51684 1-374): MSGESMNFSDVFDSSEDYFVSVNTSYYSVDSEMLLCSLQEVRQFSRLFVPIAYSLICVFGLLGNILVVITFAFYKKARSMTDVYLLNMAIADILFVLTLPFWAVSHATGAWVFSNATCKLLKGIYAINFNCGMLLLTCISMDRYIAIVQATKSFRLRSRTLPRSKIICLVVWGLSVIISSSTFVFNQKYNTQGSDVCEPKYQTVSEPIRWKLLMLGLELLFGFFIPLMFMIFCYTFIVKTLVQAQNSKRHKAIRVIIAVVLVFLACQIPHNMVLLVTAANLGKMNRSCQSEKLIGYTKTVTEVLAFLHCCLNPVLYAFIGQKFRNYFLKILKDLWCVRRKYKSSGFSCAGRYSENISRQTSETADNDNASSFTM
Experiment: Migration assay (chemotaxis, ChemoTX)
Type: cell-based
Settings: hCCR6-transfected Ba/F3 cells in human serum, migration to recombinant human CCL20 10 nM, 37° C. 45 minutes; read-out: Potency (IC50 value in the migration assay)
How it was run: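 Ba/F3 cells transfected with human CCR6 and butyrate-primed for 24 h were suspended at 4 million/ml in human serum with compound, serially diluted from a 1 μM final top concentration. Cells migrated through a 5-μm polycarbonate membrane toward 10 nM human CCL20 for 45 min at 37 °C. Migrated cells were quantified by CyQUANT fluorescence.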

| SMILES | IC50 |
| --- | --- |
| Cc1cc2[nH]nc(C#N)c2cc1-c1ccc(S(=O)(=O)N2CC[C@@H](Nc3ccc(C(F)(F)F)cn3)[C@@H](O)C2)cc1 [Example 36, 5-(4-(((3S,4R)-3-hydroxy-4-((5-(trifluoromethyl)pyridin-2-yl)amino)piperidin-1-yl)sulfonyl)phenyl)-6-methyl-1H-indazole-3-carbonitrile] | < 1 nM |
| N#Cc1ccc(N[C@@H]2CCN(S(=O)(=O)c3ccc(-c4ccnc(C(N)=O)c4)cc3)C[C@@H]2O)nc1 [Example 37, 4-(4-(((3S,4R)-4-((5-cyanopyridin-2-yl)amino)-3-hydroxypiperidin-1-yl)sulfonyl)phenyl)picolinamide] | < 1 nM |
| Nc1n[nH]c2ncc(-c3ccc(S(=O)(=O)N4CC[C@@H](Nc5ccc(C(F)(F)F)cn5)[C@@H](O)C4)cc3)cc12 [Example 38, (3S,4R)-1-((4-(3-amino-1H-pyrazolo[3,4-b]pyridin-5-yl)phenyl)sulfonyl)-4-((5-(trifluoromethyl)pyridin-2-yl)amino)piperidin-3-ol] | < 1 nM |
| COC(=O)c1cc(-c2ccc(S(=O)(=O)N3CC[C@@H](Nc4ccc(C(F)(F)F)cn4)[C@@H](O)C3)cc2)ccn1 [Example 39, Methyl 4-(4-(((3S,4R)-3-hydroxy-4-((5-(trifluoromethyl)pyridin-2-yl)amino)piperidin-1-yl)sulfonyl)phenyl)picolinate] | < 1 nM |
| CN(C)C(=O)c1cc(-c2ccc(S(=O)(=O)N3CC[C@@H](Nc4ccc(C(F)(F)F)cn4)[C@@H](O)C3)cc2)ccn1 [Example 40, 4-(4-(((3S,4R)-3-Hydroxy-4-((5-(trifluoromethyl)pyridin-2-yl)amino)piperidin-1-yl)sulfonyl)phenyl)-N,N-dimethylpicolinamide] | 1 to 10 nM |
| O=C(NCCO)c1cc(-c2ccc(S(=O)(=O)N3CC[C@@H](Nc4ccc(C(F)(F)F)cn4)[C@@H](O)C3)cc2)ccn1 [Example 41] | < 1 nM |
| NC(=O)c1ncc(-c2ccc(S(=O)(=O)N3CC[C@@H](Nc4ccc(C(F)(F)F)cn4)[C@@H](O)C3)cc2)s1 [Example 42, 5-(4-(((3S,4R)-3-Hydroxy-4-((5-(trifluoromethyl)pyridin-2-yl)amino)piperidin-1-yl)sulfonyl)phenyl)thiazole-2-carboxamide] | < 1 nM |
| Cc1cc(-c2ccc(S(=O)(=O)N3CC[C@@H](Nc4ccc(C(F)(F)F)cn4)[C@@H](O)C3)cc2)cc2c(C#N)n[nH]c12 [Example 43, 5-(4-(((3S,4R)-3-hydroxy-4-((5-(trifluoromethyl)pyridin-2-yl)amino)piperidin-1-yl)sulfonyl)phenyl)-7-methyl-1H-indazole-3-carbonitrile] | < 1 nM |
| COc1cc(-c2ccc(S(=O)(=O)N3CC[C@@H](Nc4ccc(C(F)(F)F)cn4)[C@@H](O)C3)cc2)cc(C(N)=O)n1 [Example 44, 4-(4-(((3S,4R)-3-Hydroxy-4-((5-(trifluoromethyl)pyridin-2-yl)amino)piperidin-1-yl)sulfonyl)phenyl)-6-methoxypicolinamide] | < 1 nM |
| Cc1nc2[nH]ccc2c(C)c1-c1ccc(S(=O)(=O)N2CC[C@@H](Nc3ccc(C(F)(F)F)cn3)[C@@H](O)C2)cc1 [Example 45, (3S,4R)-1-((4-(4,6-dimethyl-1H-pyrrolo[2,3-b]pyridin-5-yl)phenyl)sulfonyl)-4-((5-(trifluoromethyl)pyridin-2-yl)amino)piperidin-3-ol] | < 1 nM |
| Cc1nc2[nH]cc(C#N)c2cc1-c1ccc(S(=O)(=O)N2CC[C@@H](Nc3ccc(C(F)(F)F)cn3)[C@@H](O)C2)cc1 [Example 46, 5-(4-(((3S,4R)-3-hydroxy-4-((5-(trifluoromethyl)pyridin-2-yl)amino)piperidin-1-yl)sulfonyl)phenyl)-6-methyl-1H-pyrrolo[2,3-b]pyridine-3-carbonitrile] | < 1 nM |
| O=c1[nH]c2ccc(-c3ccc(S(=O)(=O)N4CC[C@@H](Nc5ccc(C(F)(F)F)cn5)[C@@H](O)C4)cc3)cc2[nH]1 [Example 47, 5-(4-(((3S,4R)-3-hydroxy-4-((5-(trifluoromethyl)pyridin-2-yl)amino)piperidin-1-yl)sulfonyl)phenyl)-1,3-dihydro-2H-benzo[d]imidazol-2-one] | < 1 nM |

From patent US12018016B2, “Aryl sulfonyl (hydroxy) piperidines as CCR6 inhibitors” (CHEMOCENTRYX, INC., priority 2021, dated 2024)
